Legend:
[1] = target: T1, mouse TRPV3 (Mus musculus, UniProt Q8K424); experiment: Voltage-step whole-cell recording of TRPV3 currents (40 μM 2-APB) in HEK 293T cells; assay type: cell-based; set-up: expressed in transfected cells; host or cells: HEK 293T; conditions: steps –160 to +180 mV, dyclonine 10, 30 μM, RR 10 μM
T1 sequence (Q8K424 1-791): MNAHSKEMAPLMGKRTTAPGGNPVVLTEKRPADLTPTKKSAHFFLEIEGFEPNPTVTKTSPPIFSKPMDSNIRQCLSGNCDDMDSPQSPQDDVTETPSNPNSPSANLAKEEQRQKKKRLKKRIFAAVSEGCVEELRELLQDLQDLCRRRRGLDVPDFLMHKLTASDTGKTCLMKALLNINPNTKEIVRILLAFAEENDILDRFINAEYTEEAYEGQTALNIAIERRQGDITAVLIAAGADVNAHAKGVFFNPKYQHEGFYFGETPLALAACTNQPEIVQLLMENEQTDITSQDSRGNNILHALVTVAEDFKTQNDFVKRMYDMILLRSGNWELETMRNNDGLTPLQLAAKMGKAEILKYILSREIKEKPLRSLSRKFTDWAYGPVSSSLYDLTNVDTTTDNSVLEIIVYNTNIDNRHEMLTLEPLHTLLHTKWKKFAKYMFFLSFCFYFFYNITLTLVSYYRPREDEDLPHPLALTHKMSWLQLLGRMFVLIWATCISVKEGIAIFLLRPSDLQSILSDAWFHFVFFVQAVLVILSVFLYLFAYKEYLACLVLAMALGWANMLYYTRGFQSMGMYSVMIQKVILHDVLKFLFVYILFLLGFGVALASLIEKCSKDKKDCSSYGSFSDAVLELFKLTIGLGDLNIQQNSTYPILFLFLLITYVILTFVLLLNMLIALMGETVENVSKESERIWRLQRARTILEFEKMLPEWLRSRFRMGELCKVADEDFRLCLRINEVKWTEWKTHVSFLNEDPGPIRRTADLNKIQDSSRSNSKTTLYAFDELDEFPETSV
Excerpt: Conventional whole-cell and excised patch-clamp recording methods were used. For the recombinant expressing system, green fluorescent EGFP was used as a surface marker for gene expression. Recording pipettes were pulled from borosilicate glass capillaries (World Precision Instruments) and fire-polished to a resistance between 2 and 4 MΩ when filled with internal solution containing (in mM) 140 CsCl, 2.0 MgCl2, 5 EGTA, and 10 HEPES, pH 7.4 (adjusted with CsOH). Bath solution contained (in mM): 140 NaCl, 5 KCl, 3 EGTA, and 10 HEPES, pH 7.4 adjusted with NaOH. For recordings in keratinocytes, the bath saline consisted of (in mM) 140 NaCl, 5 KCl, 2 MgCl2, 2 CaCl2, 10 glucoses, and 10 HEPES, pH 7.4 adjusted with NaOH, and the pipette solution contained (in mM) 140 CsCl, 5 EGTA, and 10 HEPES, pH 7.3 adjusted with CsOH. […] For a subset of recordings, currents were amplified using an Axopatch 200B amplifier (Molecular Devices, Sunnyvale, CA) and recorded through a BNC-2090/MIO acquisition system (National Instruments, Austin, TX) using QStudio developed by Dr. Feng Qin at State University of New York at Buffalo. […] As determined by the conductance tests, the solution around a patch under study was fully controlled by the application of a flow rate of 100 μl/min or greater. […]

[2] = test system: C57B/6 mice; experiment: Carvacrol-induced itch-scratching behavior in mice; assay type: in vivo, mouse
Description: To assess itch-scratching behaviors, the hair of the rostral part of the mouse’s right neck was shaved using an electric hair clipper 24 hr before the start of experiments. Trpv3^-/- mice have been described previously ([Wang et al., 2021]). Scratching behaviors were recorded on video. The number of itch-scratching bouts was counted through video playback analysis. One scratching bout was defined as an episode in which a mouse lifted its right hind limb to the injection site and scratched continuously for any time length until this limb was returned to the floor or mouth ([Wilson et al., 2013]). All behavioral experiments were conducted in a double-blind manner. […] [Sun and Dong, 2016]).

| SMILES | effect on TRPV3-mediated inward and outward currents (voltage dependence) [1] | change in the number of scratching bouts ([2]; TRPV3-/- mice, intradermal carvacrol 0.1%, 50 μl) | accumulated scratching bouts over 30 min ([2]; WT TRPV3 mice, intradermal carvacrol 0.1%, 50 μl) | scratching bouts over 30 min ([2]; carvacrol (0.1%, 50 μl) with pretreatment of normal saline) |
| --- | --- | --- | --- | --- |
| N.N.N.N.N.N.N.N.N.N.N.N.N.N.[Cl-].[Cl-].[Cl-].[Cl-].[Cl-].[Cl-].[O-2].[O-2].[Ru+3].[Ru+3].[Ru+4] [RR, ruthenium red] | only inhibited TRPV3-mediated inward currents but enhanced outward currents |  |  |  |
| Cc1ccc(C(C)C)cc1O [carvacrol] |  | did not elicit a remarkable change | 137.2 ± 33.9 | 137.8 ± 18.3 |
